In assay [1] the test system is maximal electroshock-induced seizures (MES). The assay can be described thus: Maximal electroshock-induced seizure (MES) test. The assay is classed as in vivo. To be noted: mice; for MES (ED50 mg/kg): 30 min; for ED50: Mus musculus, po, 0.5 h. Here is the method: Mice were restrained by gripping the loose skin on their dorsal surface and saline-coated corneal electrodes were held lightly against the two cornea. […] A tonic seizure was defined as a hindlimb extension in excess of 90 degrees from plane of the body.
4-(3,4-Methylenedioxyphenoxy)benzaldehyde semicarbazone was administered orally to mice 30 min before the test procedure. […]
In general terms: The maximal electroshock test induces tonic seizures with an electrical stimulus.

For assay [2], the system named is voltage-sensitive Na^+ channels. The assay can be described thus: Electrophysiological assay: whole-cell patch-clamp of Na^+ currents in acutely dissociated hippocampal neurons. The assay is classed as cell-based, rat. Here is the method:
Cell preparation: Acute cultures of rat hippocampal neurons were prepared daily using a modification of procedures described previously (Kuo and Bean, Mol. Pharm. 46:716-725 (1994)). Briefly, hippocampi were isolated from 3-11 day old rat pup brains (Sprague-Dawley; Charles River) and were sectioned, by hand, into 0.5 - 1 mm thick transverse slices (Whittemore and Koerner, Eur. J. Pharm. 192:435-438 (1991)). Slices were incubated for at least 30 min at room temperature (20 - 24 °C) in an oxygenated medium (124 mM NaCl, 3.3 mM KCl, 2.4 mM MgSO4, 2.5 mM CaCl2, 1.2 mM KH2PO4, 26 mM NaHCO3, pH = 7.4) continuously bubbled with 5% CO2 / 95 % O2. […]
Patch-clamp recordings of voltage-sensitive Na^+ currents: Whole-cell voltage-clamp recordings were made using conventional patch-clamp technique (Hamill et al., Pfluegers Arch. 391:85-100 (1981)) with an Axopatch 200A amplifier (Axon Instruments, Foster City, CA). […] Currents were recorded at room temperature (22-25°C), filtered at 5 kHz with 4-pole Bessel filter, digitized at 20-50-µs intervals, and stored using Digidata 1200 analog/digital interface with Pclamp6/Clampex software (Axon Instruments). […] The inhibitory potency of drugs was assessed by measuring reductions in the peak amplitude of Na^+ currents induced by increasing concentrations of compounds tested. […]
On the technique in general: Patch clamp records ionic current or voltage across a cell membrane.

Assay [3] has as its system Na^+ channel Site 1. Type of assay: binding. To be noted: [^3H] saxitoxin, rat forebrain membranes.
Assay [4] deals with Na^+ channel Site 2. The assay is classed as binding. Conditions: [^3H] batrachotoxin, rat forebrain membranes.
The subject of assay [5] is formalin test in mice. The assay can be described thus: Formalin test (antinociceptive activity, time licking/biting injected paw). Type of assay: in vivo. Conditions: Mus musculus. How it is done:
Analgesic activity of 4-(4-fluorophenoxy)benzaldehyde semicarbazone was assessed in the formalin test. The method of Hunskaar, et al., J. Neurosci. Method 14:69-76 (1985), was used with some modifications as described in the following.
Mice were placed in Plexiglas jars for at least 1 h to accommodate to experimental conditions. Following the accommodation period, mice were weighed and injected with 4-(4-Fluorophenoxy)benzaldehyde semicarbazone by i.p. or p.o. administration. Control mice were injected with saline (10 ml/kg). Fifteen min (i.p.) or 30 min (p.o.) following 4-(4-fluorophenoxy)benzaldehyde semicarbazone administration mice were injected with formalin ([…] of 5% formaldehyde solution in saline) into the dorsal surface of the right hand paw. Mice were immediately transferred to the Plexiglas jars and the amount of time that each mouse spent licking and/or biting the injected paw was recorded for every 5-min period over the 1 h observation period. The data presented here are at 0-5 min (early phase) and from 5-60 min (late phase) following formalin injections. The late phase of the formalin test is the average of eleven 5-min periods.
The compound has a potency of ED50 about 5-10 mg/kg by both routes of administration.

Where [6] appears, read: determined as described in example 38.
Setting [7] is: determined as described in example 38, read-out: MES (ED50 mg/kg).

Like-named read-outs stand apart in the source and are kept apart here.

The source of these data is EP1568690A1, “The use of carbocyclic and heterocyclic substituted semicarbazones and thiosemicarbazones as sodium channel blockers” (Euro-Celtique S.A., priority 1997, dated 1998).

“4-(4-fluorophenyl)benzaldehyde 2'-methylsemicarbazone”: the “MES (ED50 mg/kg)” value in assay [1] (setting [6]) worked out at 1.5 mg/kg.

Consider `CN(NCc1ccc(Oc2ccc(F)cc2)cc1)C(N)=O` [2'-methyl-4-(4-flourophenoxy)phenylmethylsemicarbazide], for which the ED50 in assay [1] (setting [7]) is 3.2 mg/kg.

Regarding `NC(=O)NN=Cc1ccc(-c2ccc(F)cc2)c(F)c1` [3-fluoro-4-(4-fluorophenyl)benzaldehyde semicarbazone], in assay [1] (setting [7]), the ED50 came out at 3 mg/kg.

Consider `NC(=O)NN=Cc1ccc(Oc2ccc3c(c2)OCO3)cc1` [4-(3,4-methylenedioxyphenoxy)benzaldehyde semicarbazone], for which the ED50 in assay [1] (read-out: ED50 (the dose provided protection of 50% of animals), administered orally 30 min before the test) was found to be 5.3 mg/kg; in assay [1] (setting [7]) it was 3.4 mg/kg.

With `CN(N=Cc1ccc(Oc2ccc(F)cc2)c(F)c1)C(N)=O` [4-(4-Fluorophenoxy)-3-fluorobenzaldehyde 2'-methylsemicarbazone], in assay [1] (setting [7]), the ED50 is 0.9 mg/kg.

For the molecule `CCCCOc1ccc(Oc2ccc(C=NNC(N)=O)cc2)cc1` [4-(4-butoxyphenoxy)benzaldehyde semicarbazone], the ED50 in assay [1] (setting [7]) worked out at 14.9 mg/kg.

By IC50 is commonly meant the concentration needed to halve the response being measured. In the case of `NC(=O)NN=Cc1ccc(Oc2ccc(F)cc2)cc1` [4-(4-fluorophenoxy)benzaldehyde semicarbazone], the “effect on Na^+ currents” value in assay [2] (concentrations between 0.1 - 10 µM, holding membrane voltage of -100 mV) is “very little effect”. Besides, in assay [2] (for inactivated Na^+ channels, read-out: apparent antagonist dissociation constant (Kd)), the Kd is roughly 0.6 µM. Besides, the half-maximal inhibitory concentration (IC50) in assay [3] was greater than 100 µM; in assay [4], 22 µM. The ED50 in assay [5] (ip, 0.25 h, i.p., formalin 15 min after administration) was 5 to 10 mg/kg; in assay [5] (po, 0.5 h, p.o., formalin 30 min after administration) it was 5 to 10 mg/kg; in assay [1] (setting [7]), 1.6 mg/kg.

Regarding `NC(=O)NNCc1ccc(Oc2ccc(F)cc2)cc1` [4-(4-fluorophenoxy)phenylmethylsemicarbazide], in assay [1] (setting [6]), the “MES (ED50 mg/kg)” value is recorded as 4.2 mg/kg.

Take `NC(=O)NN=Cc1ccc(Oc2ccc3c(c2)CCC3)cc1` [4-(5-indanoxy)benzaldehyde semicarbazone, 4-(5-Indanoxy)benzaldehyde semicarbazone]: in assay [1] (setting [7]), the ED50 turned out to be 1.7 mg/kg.

For `NC(=O)NN=Cc1ccc(OC2CCCCCC2)cc1` [4-cycloheptoxybenzaldehyde semicabazone, 4-Cycloheptyloxybenzaldehyde semicarbazone], the ED50 in assay [1] (setting [7]) was found to be 3.2 mg/kg.

Regarding `CCN(CC)CC(=O)Nc1c(C)cccc1C` [Lidocaine, reference compound], the IC50 in assay [3] is greater than 100 µM; in assay [4], 29.9 µM.
